The values that follow come from patent publication US20210207188A1, “BETA-LACTAM COMPOUNDS AND METHODS OF USE THEREOF” (priority 2018, published 2021).

The target of one test is T1, IMP-1 (Serratia marcescens, UniProt P52699).
T1 construct: His tag; made in house; host or cells: Escherichia coli
Format: biochemical. To be noted: IMP-1. Here is the method:
(§1) Recombinant his-tagged beta-lactamases, including NDM-1, IMP-1, KPC-2, VIM-2 and OXA-48 were overexpressed in Escherichia coli. The enzymes were purified using HisTrap Ni-NTA columns. AmpC and TEM were purchased from commercial sources.
(§2) The fluorescence-based activity assays were performed in phosphate-buffer saline. The concentration of some of the compounds were determined by boiling the compounds in PBS solution until fluorescence signal was saturated. The amount of released fluorophore was quantified via fluorescence spectroscopy by comparing to a corresponding calibration curve.

The target in a further test is T2, KPC-2 (Klebsiella pneumoniae, UniProt Q9F663).
T2 construct: His tag; made in house; host or cells: Escherichia coli
T2 sequence (Q9F663 25-293 limits assumed): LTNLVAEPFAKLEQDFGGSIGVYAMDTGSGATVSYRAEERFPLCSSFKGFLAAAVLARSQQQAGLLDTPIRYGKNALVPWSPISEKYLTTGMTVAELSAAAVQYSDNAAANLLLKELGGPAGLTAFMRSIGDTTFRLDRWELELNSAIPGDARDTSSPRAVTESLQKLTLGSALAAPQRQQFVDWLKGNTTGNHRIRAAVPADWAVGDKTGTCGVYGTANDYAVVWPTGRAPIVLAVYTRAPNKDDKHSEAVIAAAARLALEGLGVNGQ
Type of test: biochemical. The procedure: as §1, §2

The target in a further test is T3, NDM-1 (Klebsiella pneumoniae, UniProt C7C422).
T3 construct: His tag; made in house; host or cells: Escherichia coli
T3 sequence (C7C422 29-270 limits assumed): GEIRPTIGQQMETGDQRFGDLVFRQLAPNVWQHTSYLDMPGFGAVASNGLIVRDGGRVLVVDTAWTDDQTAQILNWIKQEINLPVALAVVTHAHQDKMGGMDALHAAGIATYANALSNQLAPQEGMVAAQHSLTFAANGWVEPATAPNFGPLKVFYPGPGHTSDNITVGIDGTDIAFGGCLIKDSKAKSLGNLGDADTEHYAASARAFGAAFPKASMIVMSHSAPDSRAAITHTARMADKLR
Type of test: biochemical. Here is the method:
as §1, §2

A further test concerns the target T4, OXA-48 (Klebsiella pneumoniae, UniProt Q6XEC0).
T4 construct: His tag; made in house; host or cells: Escherichia coli
Format: biochemical. The procedure: as §1, §2

The next test concerns the target T5, VIM-2 (Escherichia coli, UniProt Q5U7L7).
T5 construct: His tag; made in house; host or cells: Escherichia coli
Type of test: biochemical. Here is the method:
as §1, §2

For a further test, the system named is AmpC. The test is described as follows: Activity of beta-lactamases towards probes (fluorescence-based activity assay), AmpC. Format: biochemical. The settings on record: probe 2.0 μM (MCW-002 1.1 μM, MCW-011 0.5 μM), PBS. Here is the method:
as §1, §2

The target in a further test is T6, TEM (Escherichia coli, UniProt P62593).
T6 construct: purchased
T6 sequence (P62593 24-286 limits assumed): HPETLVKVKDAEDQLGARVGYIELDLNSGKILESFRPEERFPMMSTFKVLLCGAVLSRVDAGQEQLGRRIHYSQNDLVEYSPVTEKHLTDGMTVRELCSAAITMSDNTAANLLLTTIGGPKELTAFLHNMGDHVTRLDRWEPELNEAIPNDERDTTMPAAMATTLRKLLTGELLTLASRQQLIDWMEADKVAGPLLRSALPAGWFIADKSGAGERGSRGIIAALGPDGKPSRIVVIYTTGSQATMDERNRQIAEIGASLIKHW
The test is described as follows: Activity of beta-lactamases towards probes (fluorescence-based activity assay), TEM. Format: biochemical. The settings on record: probe 2.0 μM (MCW-002 1.1 μM, MCW-011 0.5 μM), PBS. The procedure:
as §1, §2

Test [1] deals with beta-lactamases, including NDM-1, IMP-1, VIM-2, KPC-2, OXA-48, AmpC, and TEM. Description: Fluorescence-based activity assay, whole panel of tested beta-lactamases. Format: biochemical. To be noted: conclusion from fluorescence signals. The procedure:
as §1, §2
(§3) Among the tested beta-lactamases, NDM-1, IMP-1, VIM-2, KPC-2 and OXA-48 are carbapenemases, whereas AmpC and TEM are not. Nitrocefin was used as a control to test the activity of the beta-lactamases because it can be hydrolyzed by a wide range of beta-lactamases.

For test [2], the system named is clinical isolates (CPE, Carbapenemase Producing Enterobacteriaceae, and Non CPE strains). Description: Selectivity of probes with clinical isolates in lysis buffer (visible light and UV light). Type of test: cell-based. To be noted: probe 10 μM. Here is the method:
The selectivity of some probes were evaluated with clinical isolates. The carbapenemases presence in the bacteria (CPE, i.e., Carbapenemase Producing Enterobacteriaceae) were verified by PCR (Polymerase Chain Reaction). 1 μL loop-full of each test bacterium from overnight-cultured LB agar plate were added to 100 μL PBS buffer with 0.5% CHAPS. The bacteria were vortexed to give a homogenious suspension and incubated for 15 min. To each of the bacteria-lysis buffer mixture (20 μL) were added quick test reagents (Probes (Final concentration=10 μM), CarbaNP solution A and CarbaNP solution B). CarbaNP solutions A and B were freshly prepared according to CLSI protocol, where solution A contains 10 mM zinc sulphate and phenol red buffer at pH=7.8±0.1 and solution B was a mixture of solution A with 3 mg/mL imipenem.

For test [3], the system named is beta-lactamases, including NDM-1, IMP-1, VIM-2, KPC-2, OXA-48, AmpC, and TEM. The test is described as follows: Hydrolysis of nitrocefin by beta-lactamases, absorbance at 485 nm. Type of test: biochemical. The settings on record: nitrocefin 50 μM. The procedure:
as §1
The enzymatic activity of these beta-lactamases in hydrolysing beta-lactam compounds was tested using nitrocefin as a probe. Nitrocefin (50 μM) dissolved in phosphate buffer (pH=7.4) was mixed with each purified beta-lactamase. Once hydrolyzed, nitrocefin underwent a rapid color change from yellow to red. The hydrolysis process of nitrocefin was monitored by measuring the absorbance at 485 nm with a Molecular Device SpectraMax® Paradigm® Multi-Mode Microplate Reader.
as §3

[4] abbreviates: probe 2.0 μM (MCW-002 1.1 μM, MCW-011 0.5 μM), PBS.
The mark [5] stands for this setting: probe 2.0 μM (MCW-011 0.5 μM), PBS.

T1 sequence (P52699 19-246 limits assumed): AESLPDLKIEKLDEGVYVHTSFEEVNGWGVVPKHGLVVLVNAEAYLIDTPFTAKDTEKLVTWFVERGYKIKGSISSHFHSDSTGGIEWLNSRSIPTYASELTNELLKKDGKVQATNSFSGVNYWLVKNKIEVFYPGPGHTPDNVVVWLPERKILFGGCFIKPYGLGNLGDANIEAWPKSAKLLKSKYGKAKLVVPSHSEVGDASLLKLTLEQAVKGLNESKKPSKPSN
T4 sequence (Q6XEC0 23-265 limits assumed): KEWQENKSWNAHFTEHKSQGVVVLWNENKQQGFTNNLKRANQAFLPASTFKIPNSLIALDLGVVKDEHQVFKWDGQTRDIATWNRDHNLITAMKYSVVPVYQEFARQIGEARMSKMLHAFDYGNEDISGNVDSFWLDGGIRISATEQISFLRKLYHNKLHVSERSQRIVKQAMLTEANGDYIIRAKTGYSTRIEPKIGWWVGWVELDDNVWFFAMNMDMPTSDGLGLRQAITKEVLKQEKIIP

As for `COc1cc(COc2ccc3nc4ccc(=O)cc-4oc3c2)ccc1OC/C=C/C1=C(C(=O)O)N2C(=O)[C@H]([C@@H](C)O)[C@H]2[C@H]1C` [MCW-007, (4S,5R,6S)-6-((R)-1-hydroxyethyl)-3-((E)-3-(2-methoxy-4-(((3-oxo-3H-phenoxazin-7-yl)oxy)methyl)phenoxy)prop-1-en-1-yl)-4-methyl-7-oxo-1-azabicyclo[3.2.0]hept-2-ene-2-carboxylic acid], the “3S/k (detection limit of the probe towards the carbapenemase)” value at IMP-1 came out at 0.379 pM; at KPC-2, 8.50 pM; at NDM-1 it was 0.439 pM; at OXA-48, 367 pM; at VIM-2, 5.22 pM. Moreover, the “time until hydrolysis reaction complete (fluorescent signal plateaued)” value on IMP-1 (probe 2.0 μM) and on NDM-1 (probe 2.0 μM) was ≤ 5 min in each case. The “fluorescence signal over time” value at IMP-1 (setting [4]) was “pronounced increase in the fluorescent signal”; at KPC-2 (setting [4]), “pronounced increase in the fluorescent signal”; at NDM-1 (setting [4]), “pronounced increase in the fluorescent signal”; at OXA-48 (setting [5]), “did not provide significant fluorescence response”; at VIM-2 (setting [5]), “pronounced increase in the fluorescent signal”; in the test on AmpC, “minimal changes in the fluorescent signal”. For the same compound, on TEM, the “fluorescence signal over time” value is “minimal changes in the fluorescent signal”. Further, the Kcat at IMP-1 (Michaelis-Menten kinetics) was determined as 116 ± 2.81 s⁻¹; at KPC-2 (Michaelis-Menten kinetics) it was 8.04 ± 1.96 s⁻¹; on NDM-1 (Michaelis-Menten kinetics), 95.1 ± 4.32 s⁻¹; on VIM-2 (Michaelis-Menten kinetics), 6.87 ± 0.11 s⁻¹. For the same compound, the Km at IMP-1 (Michaelis-Menten kinetics) was determined as 1.33 ± 0.08 µM; at KPC-2 (Michaelis-Menten kinetics), 0.77 ± 0.06 µM; on NDM-1 (Michaelis-Menten kinetics) it was 1.56 ± 0.17 µM; on VIM-2 (Michaelis-Menten kinetics), 0.92 ± 0.04 µM. The “relative rate of hydrolysis reaction” value was “slower compared to the reaction with NDM-1 and IMP-1” at KPC-2; “slower compared to the reaction with NDM-1 and IMP-1” on VIM-2. Also, the “specificity among the tested beta-lactamases” value in test [1] is recorded as “specific for some carbapenemases”. The “signal with panel of clinical isolates” value was “observable colorimetric and fluorescence signal in some CPE strains but not the Non CPE strains” in test [2] (incubated for 15 min); “observable colorimetric and fluorescence signal in CPE strains but not the Non CPE strains” in [2] (incubated for 120 min).

Consider `O=C(Cc1cccs1)N[C@@H]1C(=O)N2C(C(=O)O)=C(/C=C/c3ccc([N+](=O)[O-])cc3[N+](=O)[O-])CS[C@H]12` [nitrocefin], for which the hydrolysis of nitrocefin entry in test [3] (all of the tested beta-lactamases) was “can hydrolyze nitrocefin”. Also, the “time until hydrolysis reactions complete (absorption at 485 nm plateaued)” value in test [3] (except NDM-1) is on record as ≤ 30 min.
